# Test results as given in patent publication US20120270237A9, “METHODS FOR THE IDENTIFICATION OF KINASE INTERACTING MOLECULES AND FOR THE PURIFICATION OF KINASE PROTEINS” (Cellzone AG, priority 2009, published 2012).
# Assays:
# Details in all cases: 10 μM free compound
# JNK1 = JNK1 (Homo sapiens, UniProt P45983); assay: Kinobeads competition binding, HeLa Placenta lysate mix; design: Identified kinases from HeLa Placenta lysate mix with CZC31326; endogenous in cells; host or cells: HeLa cell lysate mixed with placenta tissue lysate
# Sequence of JNK1 (P45983 whole entry): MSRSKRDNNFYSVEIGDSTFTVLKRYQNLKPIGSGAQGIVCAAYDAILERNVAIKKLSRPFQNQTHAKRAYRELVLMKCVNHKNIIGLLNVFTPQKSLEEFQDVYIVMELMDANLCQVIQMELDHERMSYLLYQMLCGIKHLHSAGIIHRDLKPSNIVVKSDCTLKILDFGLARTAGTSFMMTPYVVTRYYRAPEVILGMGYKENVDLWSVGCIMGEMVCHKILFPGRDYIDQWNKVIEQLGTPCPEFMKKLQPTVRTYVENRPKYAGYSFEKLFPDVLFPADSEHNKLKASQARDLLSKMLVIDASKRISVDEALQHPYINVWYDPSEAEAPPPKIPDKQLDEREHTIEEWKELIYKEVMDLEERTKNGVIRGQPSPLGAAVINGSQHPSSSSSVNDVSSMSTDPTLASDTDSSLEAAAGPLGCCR
# Description: (§1) To one aliquot of cell lysate 10 μM of the free compound (FIG. 3, CZC31326) was added and allowed to bind to proteins in the lysate. Then the affinity matrix with the immobilized compound was added to capture proteins that were not interacting with the previously added free compound. Beads were separated from the lysate and bead bound proteins were eluted in SDS sample buffer and subsequently separated by SDS-Polyacrylamide gel electrophoresis (FIG. 10). Suitable gel bands were cut out and subjected to in-gel proteolytic digestion with trypsin. The second lysate aliquot was processed identically, however no free compound was added (DMSO solvent control). Peptides originating from samples 1 and 2 were labeled with iTRAQ reagents (iTRAQ 114 and iTRAQ 117) and the combined samples were analyzed with a nano-flow liquid chromatography system coupled online to a tandem mass spectrometer (LC-MS/MS) experiment followed by iTRAQ reporter ion quantification in the MS/MS spectra as described in Example 2.
# PLK1 = PLK1 (Homo sapiens, UniProt P53350); assay: as above; design: capturing and identification of kinases from mixed HeLa placenta lysates; endogenous in cells; host or cells: HeLa cells mixed with placenta tissue lysate
# Sequence of PLK1 (P53350 whole entry): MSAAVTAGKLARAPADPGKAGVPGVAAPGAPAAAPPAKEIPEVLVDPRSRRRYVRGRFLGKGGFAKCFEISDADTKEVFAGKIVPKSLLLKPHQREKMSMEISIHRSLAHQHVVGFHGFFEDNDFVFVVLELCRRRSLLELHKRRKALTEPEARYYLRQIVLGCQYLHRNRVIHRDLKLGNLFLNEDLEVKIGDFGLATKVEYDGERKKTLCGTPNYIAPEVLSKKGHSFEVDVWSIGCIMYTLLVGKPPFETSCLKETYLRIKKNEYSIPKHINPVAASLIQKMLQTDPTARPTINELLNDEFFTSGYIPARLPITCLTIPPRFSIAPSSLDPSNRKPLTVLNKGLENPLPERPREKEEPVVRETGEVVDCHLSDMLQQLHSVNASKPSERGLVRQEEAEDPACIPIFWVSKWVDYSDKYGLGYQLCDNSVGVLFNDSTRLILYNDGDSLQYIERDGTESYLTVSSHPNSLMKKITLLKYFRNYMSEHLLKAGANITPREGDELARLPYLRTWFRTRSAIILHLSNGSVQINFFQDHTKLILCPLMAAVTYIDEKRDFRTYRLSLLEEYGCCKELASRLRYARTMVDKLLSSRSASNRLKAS
# Description: as §1
# PHKg2 = target: T1, PHKg2 (Homo sapiens, UniProt P15735); assay: as above; design: capturing and identification of kinases from mixed HeLa placenta lysates; endogenous in cells; host or cells: HeLa cells mixed with placenta tissue lysate
# T1 sequence (P15735 1-406): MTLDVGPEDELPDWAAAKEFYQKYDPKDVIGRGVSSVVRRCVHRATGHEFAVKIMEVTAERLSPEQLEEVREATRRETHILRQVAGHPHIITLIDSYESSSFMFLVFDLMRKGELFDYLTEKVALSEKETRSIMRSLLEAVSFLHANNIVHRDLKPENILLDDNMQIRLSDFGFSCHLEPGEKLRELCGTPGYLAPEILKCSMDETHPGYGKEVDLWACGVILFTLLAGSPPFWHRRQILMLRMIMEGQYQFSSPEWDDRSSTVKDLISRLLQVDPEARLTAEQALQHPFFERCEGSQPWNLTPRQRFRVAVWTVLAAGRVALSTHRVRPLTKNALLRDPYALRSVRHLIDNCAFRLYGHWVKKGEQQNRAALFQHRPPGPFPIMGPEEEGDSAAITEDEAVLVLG
# Description: as §1
# SYK = SYK (Homo sapiens, UniProt P43405); assay: as above; design: capturing and identification of kinases from mixed HeLa placenta lysates; endogenous in cells; host or cells: HeLa cells mixed with placenta tissue lysate
# Description: as §1
# BIKE = BIKE (Homo sapiens, UniProt Q9NSY1); assay: Kinobeads competition binding, HL60 cell lysate; design: endogenous in cells; host or cells: HL60 cells
# Sequence of BIKE (Q9NSY1 whole entry): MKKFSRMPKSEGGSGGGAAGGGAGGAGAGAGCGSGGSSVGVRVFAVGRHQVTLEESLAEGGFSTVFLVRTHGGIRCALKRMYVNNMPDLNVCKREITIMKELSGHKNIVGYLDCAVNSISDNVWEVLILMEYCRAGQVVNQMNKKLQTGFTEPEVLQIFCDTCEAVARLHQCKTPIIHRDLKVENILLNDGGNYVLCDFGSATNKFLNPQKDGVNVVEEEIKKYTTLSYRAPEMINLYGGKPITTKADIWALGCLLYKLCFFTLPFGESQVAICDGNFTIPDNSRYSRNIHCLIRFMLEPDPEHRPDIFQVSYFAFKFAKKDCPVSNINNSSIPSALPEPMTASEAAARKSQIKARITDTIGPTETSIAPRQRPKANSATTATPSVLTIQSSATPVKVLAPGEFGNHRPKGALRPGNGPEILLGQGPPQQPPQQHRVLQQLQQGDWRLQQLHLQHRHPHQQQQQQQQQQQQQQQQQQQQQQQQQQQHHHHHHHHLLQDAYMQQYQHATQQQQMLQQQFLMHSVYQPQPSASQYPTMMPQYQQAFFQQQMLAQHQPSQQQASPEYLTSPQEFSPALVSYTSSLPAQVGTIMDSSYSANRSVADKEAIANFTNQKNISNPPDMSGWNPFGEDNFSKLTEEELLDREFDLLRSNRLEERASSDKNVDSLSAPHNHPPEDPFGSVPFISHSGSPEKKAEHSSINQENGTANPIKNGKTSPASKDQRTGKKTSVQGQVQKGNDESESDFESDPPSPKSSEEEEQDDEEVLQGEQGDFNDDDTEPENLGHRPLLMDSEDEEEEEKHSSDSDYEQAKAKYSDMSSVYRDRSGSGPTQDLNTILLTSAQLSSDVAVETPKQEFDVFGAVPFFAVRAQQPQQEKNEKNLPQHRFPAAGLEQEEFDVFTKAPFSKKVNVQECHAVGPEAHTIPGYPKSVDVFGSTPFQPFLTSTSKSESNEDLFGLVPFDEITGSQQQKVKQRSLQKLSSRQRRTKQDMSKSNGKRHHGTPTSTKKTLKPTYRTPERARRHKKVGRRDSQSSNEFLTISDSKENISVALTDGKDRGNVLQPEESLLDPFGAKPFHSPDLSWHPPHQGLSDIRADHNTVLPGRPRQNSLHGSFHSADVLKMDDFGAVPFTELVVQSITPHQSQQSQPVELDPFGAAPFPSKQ
# Description: (§2) To one aliquot of cell lysate 10 μM of the free compound (FIG. 3, CZC31326) was added and allowed to bind to proteins in the lysate. Then the affinity matrix with the immobilized compound (Example 1) was added to capture proteins that were not interacting with the previously added free compound. Beads were separated from the lysate and bead bound proteins were eluted in SDS sample buffer and subsequently separated by SDS-Polyacrylamide gel electrophoresis (FIG. 4). Suitable gel bands were cut out and subjected to in-gel proteolytic digestion with trypsin. The second lysate aliquot was processed identically, however no free compound was added (DMSO solvent control). Peptides originating from samples 1 and 2 were labeled with iTRAQ reagents (iTRAQ 114 and iTRAQ 117) and the combined samples were analyzed with a nano-flow liquid chromatography system coupled online to a tandem mass spectrometer (LC-MS/MS) experiment followed by iTRAQ reporter ion quantification in the MS/MS spectra (Ross et al., 2004. Mol. Cell. Proteomics 3(12):1154-1169). Further experimental protocols can be found in WO2006/134056 and a previous publication (Bantscheff et al., 2007. Nature Biotechnology 25, 1035-1044). Sepharose-beads with the immobilized compound (100 μl beads per pull-down experiment) were equilibrated in lysis buffer and incubated with a cell lysate sample containing 50 mg of protein on an end-over-end shaker (Roto Shake Genie, Scientific Industries Inc.) for 2 hours at 4° C. Beads were collected, transferred to Mobicol-columns (MoBiTech 10055) and washed with 10 ml lysis buffer containing 0.4% NP40 detergent, followed by 5 ml lysis buffer containing 0.2% detergent. To elute bound proteins, 60 μl 2×SDS sample buffer was added to the column. The column was incubated for 30 minutes at 50° C. and the eluate was transferred to a siliconized microfuge tube by centrifugation. Proteins were then alkylated with 108 mM iodoacetamid. Proteins were then separated by SDS-Polyacrylamide electrophoresis (SDS-PAGE). The peptide extracts of samples treated with 10 μM of free compound (CZC31326) and the solvent control (0.5% DMSO) were treated with different variants of the isobaric tagging reagent (iTRAQ Reagents Multiplex Kit, part number 4352135, Applied Biosystems, Foster City, Calif., USA). The iTRAQ reagents are a set of multiplexed, amine-specific, stable isotope reagents that can label peptides on amino groups in up to four different biological samples enabling simultaneous identification and quantitation of peptides. The iTRAQ reagents were used according to instructions provided by the manufacturer. The samples were resuspended in 10 μl 50 mM TEAB solution, pH 8.5 and 10 μl ethanol were added. The iTRAQ reagent was dissolved in 120 μl ethanol and 10 μl of reagent solution were added to the sample. The labeling reaction was performed at room temperature for one hour on a horizontal shaker and stopped by adding 5 μl of 100 mM TEAB and 100 mM glycine in water. The two labeled sampled were then combined, dried in a vacuum centrifuge and resuspended in 10 μl of 0.1% formic acid in water. Relative protein quantitation was performed using peak areas of iTRAQ reporter ion signals essentially as described in an earlier publication (Bantscheff et al., 2007. Nature Biotechnology 25, 1035-1044).
# RSK3 = RSK3 (Homo sapiens, UniProt Q15349); assay: Kinobeads competition binding, HL60 cell lysate; design: endogenous in cells; host or cells: HL60 cells
# Sequence of RSK3 (Q15349 whole entry): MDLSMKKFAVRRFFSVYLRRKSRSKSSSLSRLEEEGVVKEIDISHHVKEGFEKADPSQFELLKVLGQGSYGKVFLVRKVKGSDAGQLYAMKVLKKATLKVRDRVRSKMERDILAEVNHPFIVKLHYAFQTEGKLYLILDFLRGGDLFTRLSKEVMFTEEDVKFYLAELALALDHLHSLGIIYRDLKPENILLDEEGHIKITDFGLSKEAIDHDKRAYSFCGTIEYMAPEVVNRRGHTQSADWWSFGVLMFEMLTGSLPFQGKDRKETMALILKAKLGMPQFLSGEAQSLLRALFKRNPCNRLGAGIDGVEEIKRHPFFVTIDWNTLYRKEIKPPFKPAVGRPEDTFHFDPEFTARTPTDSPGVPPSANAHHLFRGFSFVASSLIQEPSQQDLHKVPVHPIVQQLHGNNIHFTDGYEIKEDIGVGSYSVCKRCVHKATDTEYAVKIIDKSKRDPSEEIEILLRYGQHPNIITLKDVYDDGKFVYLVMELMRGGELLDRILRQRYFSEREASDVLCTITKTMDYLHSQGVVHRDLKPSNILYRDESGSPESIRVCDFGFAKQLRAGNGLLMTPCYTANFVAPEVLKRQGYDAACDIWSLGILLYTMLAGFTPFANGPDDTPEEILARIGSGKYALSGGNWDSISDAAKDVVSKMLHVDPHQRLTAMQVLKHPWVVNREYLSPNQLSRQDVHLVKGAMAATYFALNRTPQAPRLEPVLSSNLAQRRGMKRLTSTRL
# Description: as §2
# CaMK2g = CaMK2g (Homo sapiens, UniProt Q13555); assay: Kinobeads competition binding, HL60 cell lysate; design: endogenous in cells; host or cells: HL60 cells
# Sequence of CaMK2g (Q13555 whole entry): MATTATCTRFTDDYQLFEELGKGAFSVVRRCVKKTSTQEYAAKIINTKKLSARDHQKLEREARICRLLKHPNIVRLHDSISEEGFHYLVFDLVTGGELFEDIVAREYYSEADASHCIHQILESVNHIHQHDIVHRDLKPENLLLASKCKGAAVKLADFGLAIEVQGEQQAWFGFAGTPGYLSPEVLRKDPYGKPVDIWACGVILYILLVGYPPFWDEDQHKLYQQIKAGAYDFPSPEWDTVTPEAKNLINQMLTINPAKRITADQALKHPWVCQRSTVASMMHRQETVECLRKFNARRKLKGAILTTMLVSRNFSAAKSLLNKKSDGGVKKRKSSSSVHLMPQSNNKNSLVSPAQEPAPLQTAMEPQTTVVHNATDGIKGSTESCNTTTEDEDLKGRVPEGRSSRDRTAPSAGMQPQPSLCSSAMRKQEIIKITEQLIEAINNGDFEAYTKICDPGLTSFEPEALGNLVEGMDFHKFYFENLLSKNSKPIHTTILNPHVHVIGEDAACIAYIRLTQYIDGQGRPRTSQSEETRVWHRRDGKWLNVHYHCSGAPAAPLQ
# Description: as §2
smiles,measurement,setting,value
"CS(=O)(=O)Nc1ccccc1Nc1nc(Nc2cccc(OCCN)c2)ncc1Cl [CZC31326, N-(2-(2-(3-(2-aminoethoxy)phenylamino)-5-chloropyrimidin-4-ylamino)phenyl)methanesulfonamide]",Competition %,JNK1,85%
same,inhibition at 10 µM,PLK1,94.7%
same,inhibition at 10 µM,PHKg2,89.9%
same,Competition %,SYK,93.4%
same,inhibition at 10 µM,BIKE,97.6%
same,inhibition at 10 µM,RSK3,96.9%
same,inhibition at 10 µM,CaMK2g,90.4%
